{"source": "patent US20150272992A1", "about": "“Treatment of Tumors with Activated Mesenchymal Stem Cells” (THE TEXAS A&M UNIVERSITY SYSTEM, priority 2012, published 2015)", "molecules": {"B1": {"name": "rhTRAIL: recombinant human TRAIL (R&D Systems) (protein, UniProt P50591 39-281, looked up)", "extracellular domain": "TNELKQMQDKYSKSGIACFLKEDDSYWDPNDEESMNSPCWQVKWQLRQLVRKMILRTSEETISTVQEKQQNISPLVRERGPQRVAAHITGTRGRSNTLSSPNSKNEKALGRKINSWESSRSGHSFLSNLHLRNGELVIHEKGFYYIYSQTYFRFQEEIKENTKNDKQMVQYIYKYTSYPDPILLMKSARNSCWSKDAEYGLYSIYQGGIFELKENDRIFVSVTNEHLIDMDHEASFFGAFLVG", "modifications": "extracellular domain"}}, "type_in_all_cases": "cell-based, human", "key": {"[1]": {"test_system": "MDA cells", "assay": "Co-culture of hMSCs and MDA cells (Annexin V/7AAD apoptosis, live cell counting)", "procedure": "(§1) hMSCs were plated at 10^5 cells in CCM in 6-well plates and incubated for 4 hrs. For pre-activation, hMSCs were incubated at 37° C. for 24 hrs in 2% CM containing 10 ng/mL TNF-α. For co-culture, an equal number of MDA cells in 2% CM with or without TNF-α (10 ng/mL) were added to hMSC containing wells. For transwell cultures, hMSCs were plated at 10^5 cells in the upper compartment (Transwell, 0.4 μm pore size; Corning; Corning, N.Y.), while an equal number of MDA cells was plated in the lower compartment in 2% CM with or without TNF-α (10 ng/mL). After 24 hrs, supernatants and cells were collected. For some experiments, MDA cells were treated with 1 to 100 ng/mL doxorubicin (Sigma-Aldrich) in 2% CM for 24 his at 37° C., prior to co-culture with hMSCs. In other experiments, hMSCs were treated with either apoptotic MDA cells or 1 μg/mL Polyinosinic-Polycytidylic acid [Poly(I:C); Sigma-Aldrich; St. Louis, Mo.] with or without TNF-α (10 ng/ml) for 24 hrs in 2% CM.\n(§2) hMSCs and MDA cells from co-culture experiments were suspended in PBS and incubated with CD90-PE (Clone Thy1/310; Beckman Coulter) for 45 minutes on ice, washed with PBS by centrifugation, incubated at RT for 20 minutes with 300 ng/mL annexin V (AnnexinV-FITC Apoptosis Detection Kit; Sigma-Aldrich) and 4 μg/mL 7-aminoactinomycin D (7AAD; Sigma-Aldrich.), and analyzed by flow cytometry (Cytomics FC500; Beckman Coulter).\nhMSCs (5×10^4 cells/well in 6 well plate) were treated with either TLR3 antibody (5 μg/mL; eBioscience, Inc; San Diego, Calif.), TRAIL antibody (25 μg/mL; BD Biosciences, Inc; San Jose, Calif.), or normal mouse IgG (5 or 25 μg/mL; PeproTech, Inc; Rocky Hill, N.J.) for 30 minutes at 37° C. in 2% CM with or without TNF-α (10 ng/mL) prior to co-culture with an equal number of MDA cells for 24 hrs."}, "[2]": {"test_system": "TRAIL", "assay": "TRAIL expression in hMSCs (real-time RT-PCR, Western, ELISA, IF)", "procedure": "(§3) Approximately 200 ng of total RNA extracted from cultured cells was used to synthesize double-stranded complementary DNA (cDNA) by reverse transcription (SuperScript III; Invitrogen). cDNA was analyzed by real-time PCR using TaqMan Universal PCR Master Mix (Applied Biosystems). For the assays, reactions were incubated at 50° C. for 2 minutes and at 95° C. for 10 minutes followed by 40 cycles at 95° C. for 15 seconds and 60° C. for 1 minute. For relative quantitation of gene expression, human-specific GAPDH primers and probe (Taq-Man Gene Expression Assays ID, Hs00266705_g1) were used. The other PCR primers and probes were human DKK3 (Hs00247426_m1), human TRAIL (TNFSF10: Hs00921974_m1) and human TLR3 (Hs01551078_m1) all purchased from the same source (Applied Biosystems).\n(§4) Cultured cells were sorted using FACS after CD90-PE staining. Sorted samples were lysed (Cell Extraction Buffer; Invitrogen) and sonicated for 15-20 seconds (Ultrasonic Processor, 130W; Cole-Parmer; Vernon Hills, Ill.). […] The samples were heated at 97° C. for 5 minutes. Denatured protein samples were separated by electrophoresis on polyacrylamide gels (NuPAGE® Bis-Tris Gels; Invitrogen) and proteins transferred to Invitrolon™ PVDF membrane (Pore size—0.45 μm; Invitrogen) using Novex® NuPAGE® SDS-PAGE Gel System (Invitrogen). Membranes were then blocked for 1 hour at room temperature (RT) using blocking buffer that contained 5% non-fat dry milk (Cell Signaling Technologies, Inc.) in Tris-buffered saline with 0.1% Tween-20 (TBST). After blocking, membranes were incubated overnight at 4° C. with primary antibodies that were diluted in 5% BSA in TBST. The membranes were washed with TBST three times for 5 minutes each, and incubated with secondary antibodies, which were diluted in blocking buffer, for 1 hour at RT. After secondary antibody incubation, the membranes were washed with TBST three times and developed using West-Q Chemiluminescent Substrate Kit (Gendepot, Inc.; Barker, Tex.) for 1 minute. Images were taken using Molecular Imager VersaDoc™ MP 4000 (Bio-rad Laboratories). The membranes were washed with TBST three times and stripped using Restore™ Western Blot Stripping buffer (Thermo Fisher Scientific, Inc.) for 15 minutes at 37° C., followed by three more washes with TBST. The membranes were blocked for 1 hour using blocking buffer and incubated with β-actin primary antibody conjugated with HRP (1:10,000) diluted in blocking buffer followed by imaging as described above. […]\nConditioned media from cultured MDA and hMSCs were collected after 24 hour incubation. For the DKK-3 assay, culture media were filtered (Spin-X® Centrifuge Tube Filter, 0.22 μm; Corning, Inc) and the protein level was detected by ELISA (Human Dkk-3 DuoSet; R&D Systems). […]"}, "[3]": {"test_system": "cyclin D1, cyclin D3 and p21", "assay": "Cyclin D1, cyclin D3 and p21 in MDA cells (Western blot, IF staining)", "settings": "TNF-α alone", "procedure": "as §4, with “Laboratories).” for “Laboratories). The membranes were washed with TBST three times and stripped using Restore™ Western Blot Stripping buffer (Thermo Fisher Scientific, Inc.) for 15 minutes at 37° C., followed by three more washes with TBST. The membranes were blocked for 1 hour using blocking buffer and incubated with β-actin primary antibody conjugated with HRP (1:10,000) diluted in blocking buffer followed by imaging as described above.”"}, "[4]": {"test_system": "DKK3", "assay": "DKK3 expression in hMSCs (ELISA)", "settings": "10 ng/mL TNF-α", "procedure": "Conditioned media from cultured MDA and hMSCs were collected after 24 hour incubation. For the DKK-3 assay, culture media were filtered (Spin-X® Centrifuge Tube Filter, 0.22 μm; Corning, Inc) and the protein level was detected by ELISA (Human Dkk-3 DuoSet; R&D Systems). For detection of TRAIL, the filtered medium was concentrated to 4 times (Vivaspin 6 (5 kDa MWCO; GE Healthcare; UK) and assayed by ELISA (Human TRAIL Quantikine ELISA kit; R&D Systems)."}, "[5]": {"test_system": "TLR3", "assay": "TLR3 expression in hMSCs (real-time RT-PCR)", "settings": "incubation with TNF-α", "procedure": "as §3\nhMSCs and MDA cell were separated by cell sorting (FACS, MoFlo™ XDP; Beckman Coulter; Brea, Calif.) after labeling with CD90-PE for 45 minutes on ice. RNA was extracted using RNeasy Mini Kit (QIAGEN). See Supplemental Information for real time RT-PCR analysis."}, "[6]": {"test_system": "MDA cells", "assay": "MDA cells incubated with agent alone (live cell counting, MTT, Annexin V/7AAD)", "procedure": "as §1, §2"}, "[7]": {"test_system": "β-catenin", "assay": "β-catenin in MDA cells (IF staining)", "settings": "24 hr incubation with rhDKK3", "procedure": "For immunofluorescence staining, hMSCs were cultured in CCM overnight in 150 mm diameter plates and replated at 10,000 cells/cm^2 in chambered slides (Lab Tek II Chamber Slide™ System; Nunc Thermo Scientific, Rochester, N.Y.). […] After co-culture, the cells were washed with PBS twice and fixed with either methanol for anti-TRAIL antibody or 4% PFA for all other antibodies. The slides were further processed for immuno-staining as described above. The antibodies used for immunochemistry were anti-human nuclei mouse monoclonal antibody (Millipore, Billerica, Mass.) anti-GFP-Alexa Fluor® rat monoclonal antibody (RQ2; MBL Co. Ltd, Woburn, Mass.), anti-human TRAIL rabbit polyclonal antibodies (C92B9; Cell Signaling) anti-human cyclin D1 mouse monoclonal antibody (DCS6; Cell Signaling), anti-human p21 mouse monoclonal antibody (DCS60; Cell Signaling) and anti-human β-catenin mouse monoclonal antibodies (BD Bioscience, Sparks, Md.). Alexa Fluor® antibodies (Invitrogen) were used for secondary antibodies."}, "[8]": {"test_system": "U87", "assay": "Live cell number / cell death of U87 cells", "settings": "100 ng/ml rhTRAIL, 24 hour; compared with MDA cells"}}, "data": [{"molecule": "Polyinosinic-Polycytidylic acid [poly(I:C)]", "values": [{"measurement": "MDA apoptosis when agent added to co-cultures", "setting": "[1]; poly(I:C)/TNF-α pre-activated hMSCs, 24 hr", "value": "small but statistically significant increase in MDA apoptosis"}, {"measurement": "expression of TRAIL in hMSCs", "setting": "[2]; 1 μg/mL Poly(I:C), 24 hrs", "value": "increased expression of TRAIL in hMSCs"}]}, {"molecule": "DNase", "values": [{"measurement": "increase of TRAIL in hMSCs by apoptotic MDA cells pre-treated with enzyme", "setting": "[2]; 24 hr incubation", "value": "inhibited the increase of TRAIL in hMSCs"}]}, {"molecule": "TNF-α", "values": [{"measurement": "expression of cyclin D1, D3 and p21 in MDA cells", "setting": "[3]", "value": "had no significant effect"}, {"measurement": "concentration adequate to activate hMSCs to induce MDA apoptosis", "setting": "[1]; co-culture", "value": 0.1, "unit": "ng/mL"}, {"measurement": "activation of hMSCs to induce apoptosis of MDA cells in co-culture", "setting": "[1]; over the range of 0.1 to 10 ng/mL", "value": "concentration dependent"}, {"measurement": "expression of TRAIL protein in hMSCs", "setting": "[2]; 10 ng/mL TNF-α", "value": "up-regulated"}, {"measurement": "expression of DKK3 protein in hMSCs", "setting": "[4]", "value": "up-regulated"}, {"measurement": "expression of TLR3 in hMSCs", "setting": "[5]", "value": "increased by incubation with TNF-α"}]}, {"molecule": "IFN-γ: pro-inflammatory agent", "values": [{"measurement": "up-regulation of TRAIL in hMSCs", "setting": "[2]; 24 hour incubation of hMSCs with the agent, real time RT-PCR", "value": 30, "unit": "fold"}]}, {"molecule": "COc1cccc2c1C(=O)c1c(O)c3c(c(O)c1C2=O)C[C@@](O)(C(=O)CO)C[C@@H]3O[C@H]1C[C@H](N)[C@H](O)[C@H](C)O1", "note": "[doxorubicin]", "values": [{"measurement": "apoptosis of MDA cells", "setting": "[6]; 100 ng/mL (0.2 μM)", "value": "did not induce apoptosis"}, {"measurement": "proliferation of MDA (recovery of live cells)", "setting": "[6]; 100 ng/mL (0.2 μM), 24 hrs", "value": "suppressed proliferation of MDA"}, {"measurement": "number of live MDA cells recovered from cultures", "setting": "[6]; after 24 hrs, 1 to 100 ng/mL, dose dependent", "value": "decreased the number of live MDA cells"}]}, {"molecule": "rhDKK-3: recombinant human DKK3 (R&D Systems)", "values": [{"measurement": "proliferation of MDA cells (MTT, live cell number)", "setting": "[6]; 24 hr incubation with rhDKK3", "value": "decreased"}, {"measurement": "viability of MDA cells (Annexin V & 7AAD)", "setting": "[6]; rhDKK3 5 ng/mL, 24 hr", "value": "without affecting the viability of MDA cells"}, {"measurement": "number of β-catenin expressing MDA", "setting": "[7]", "value": "decreased the number of β-catenin expressing MDA"}]}, {"molecule": "B1", "values": [{"measurement": "sensitivity of U87 cells (cell death)", "setting": "[8]", "value": "less sensitive to rhTRAIL than MDA cells"}]}]}
